{"source": "patent EP3064205A1", "about": "“Therapeutic use of isomeric forms of 2-(4-chlorophenyl)quinolin-4-yl)(piperidin-2-yl)methanol” (Glionova AB, priority 2015, dated 2016)", "assay_type_in_all_cases": "cell-based, human", "key": {"[1]": {"tested_on": "glioblastoma cell line U3013", "test": "ATP viability assay (CellTiter-Glo)", "description": "The human melanoma cell line SK-MEL-28 is a well established reference cell line in melanoma research (Goodfellow M, et al. J. Natl. Cancer Inst. 59: 221-226, 1977). Cells were cultured in MEM supplemented with 10% FCS. Glioblastoma cell line (U3013) was generated directly from patient-derived tumors (Kitambi et al. Cell. 2014: 157(2):313-28) and grown in serum-free media supplemented with N2, B27, EGF, and FGF-2 (20 ng/ml) using previously described methodology (Pollard et al., 2009).\nCulture plates were pre-coated with laminin (Sigma) for 3 hr at 10 ug/ml prior to use and confluent cells were split 1:3 to 1:5 using TrypLE Express (Invitrogen).\nViability assay was conducted in 96 well microtiter plates seeded with 3000 cells. Cell viability was measured using CellTiter-Glo assay (Promega), according to the manufacturer's instructions. Luminescence was measured using Victor3 FA (Perkin Elmer) microtiter plate reader. Total luminescence was normalized relative to negative control and curve fitting performed using GraphPad Prism (v6.02) software. IC50 was determined using Cell Viability assay, and data was illustrated using GraphPad Prism (version 6.02)"}, "[2]": {"tested_on": "Panc-1 cells", "test": "ATP viability assay (CellTiter-Glo), 3D culture, automatic drug screen", "conditions": "Panc-1, 3D culture, 72 h", "excerpt": "(§1) The following well-characterized human pancreatic ductal adenocarcinoma cell lines (ATCC) were used: HPAF II, BxPC-3, MIA-PaCa2 and Panc-1. These cell lines were generated from patient-derived tumors and are widely used model system to study pancreatic cancer (HPAF II: Kim YW, et al. Pancreas 4: 353-362, 1989; BxPC-3: Tan MH, et al. Cancer Invest. 4: 15-23, 1986; MIA-PaCa2: Yunis AA, et al. Int. J. Cancer 19: 128-135, 1977; Pacn-1: Lieber M, et al. Int. J. Cancer 15: 741-747, 1975).\n(§2) Panc-1, HPAF II, KPC pancreatic adenocarcinoma cell lines were trypsin-treated and counted using the Casy Cell Counter according to the manufacturer's recommendations (GmbH). Subsequently, they were seeded onto round bottom non-tissue culture treated 96 well-plates (Falcon, BD NJ, USA) at a concentration of 2500 cells/well in 100 µl DMEM-F12 or phenol red-free DMEM-F12 medium, containing 10% FCS and supplemented with 20% methyl cellulose stock solution. For preparation of methylcellulose stock solution, 6 grams of methylcellulose powder (M0512, Sigma-Aldrich) was autoclaved in a 500 ml flask containing a magnetic stirrer (the methylcellulose powder is resistant to this procedure). The autoclaved methylcellulose was dissolved in preheated 250 ml basal medium (60°C) for 20 min (using the magnetic stirrer). Thereafter, 250 ml medium (room temperature) containing double amount of FCS (20%) was added to a final volume of 500 ml and the whole solution mixed overnight at 4°C. The final stock solution was aliquoted and cleared by centrifugation (5000g, 2 h, room temperature). Only the clear highly viscous supernatant was used for the spheroid assay (about 90-95% of the stock solution). […]\n(§3) In order to confirm the results presented in figure 1, S1 was further tested in 2 different cell lines in 3D culture format, using an automatic drug screening assay. The effect of Vacquinol-1 RS (S1) on cell viability was measured after 72h using the CellTiter-Glo assay (Promega) adapted for 3D culture."}, "[3]": {"tested_on": "HPAF II cells", "test": "ATP viability assay (CellTiter-Glo), 3D culture, automatic drug screen", "conditions": "72 h, 30-10 µM", "excerpt": "as §1, §2, §3"}, "[4]": {"tested_on": "Panc-1 cells", "test": "APH cell viability assay, 3D culture", "excerpt": "as §1\nPanc-1, HPAF II, KPC pancreatic adenocarcinoma cell lines were trypsin-treated and counted using the Casy Cell Counter according to the manufacturer's recommendations (GmbH). Subsequently, they were seeded onto round bottom non-tissue culture treated 96 well-plates (Falcon, BD NJ, USA) at a concentration of 2500 cells/well in 100 µl DMEM-F12 or phenol red-free DMEM-F12 medium, containing 10% FCS and supplemented with 20% methyl cellulose stock solution. For preparation of methylcellulose stock solution, 6 grams of methylcellulose powder (M0512, Sigma-Aldrich) was autoclaved in a 500 ml flask containing a magnetic stirrer (the methylcellulose powder is resistant to this procedure). The autoclaved methylcellulose was dissolved in preheated 250 ml basal medium (60°C) for 20 min (using the magnetic stirrer). Thereafter, 250 ml medium (room temperature) containing double amount of FCS (20%) was added to a final volume of 500 ml and the whole solution mixed overnight at 4°C. The final stock solution was aliquoted and cleared by centrifugation (5000g, 2 h, room temperature). Only the clear highly viscous supernatant was used for the spheroid assay (about 90-95% of the stock solution). For spheroid generation, 20% of the stock solution and 80% culture medium corresponding to final 0.24% methylcellulose was used. Spheroids were grown under standard culture conditions (5% CO2, at 37°C).\nFor 2D culture, cells were seeded on flat bottom 96 well plates (Costar) at a concentration of 2500 cells/well in 100 µl phenol red-free RPMI-F12 medium containing 10% FCS. For 3D culture, cells were seeded according to the description for spheroid preparation in phenol-free medium. […] The viability rate was calculated as a percentage of the untreated cells. All data were expressed as the mean ± SD of at least 8 replicates. To confirm the reliability of the APH assay on 2D culture, cell viability was measured using CellTiter-Glo assay (Promega).\nThe APH assay, which measures the activity of acidic phosphatase in the cells, was optimized for 3D cultures as follows. […] Absorbance at 405nm was measured within 10 minutes using a FluoStar OPTIMA plate reader (BMG Labtech). Viability rate was calculated as per cent of CTR untreated cells. All data are expressed as the mean ± SD of at least 8 replicates."}}, "note": "Entries after “also recorded” stand apart in the source; their conditions may differ.", "data": [{"smiles": "O[C@H](c1cc(-c2ccc(Cl)cc2)nc2ccccc12)[C@@H]1CCCCN1", "note": "[S1, (R)-(2-(4-chlorophenyl)quinolin-4-yl)((S)-piperidin-2-yl)methanol]", "values": [{"measurement": "IC50", "setting": "[1]; Homo sapiens, U3013, positive control cell line, 24, 48 and 72 h", "result": "1.9 to 3.5", "unit": "µM"}, {"measurement": "in vitro cytotoxicity, comparison of isolated isomers", "setting": "[1]; U3013, dose response, CellTiterGlo ATP quantification", "result": "S1 and S2 exhibit greater in vitro oncolytic potency than the corresponding S3 and S4 isomers; also recorded: S1 and S2 exhibit higher cytotoxicity on cancer cells than S3 and S4"}, {"measurement": "decrease in viability", "setting": "[2]; 20-10 µM", "result": "~20", "unit": "%"}, {"measurement": "viability compared to control", "setting": "[2]; 30 and 25 µM", "result": "marked decrease in viability"}, {"measurement": "viability compared to control", "setting": "[3]", "result": "marked decrease in viability"}, {"measurement": "vacuole formation", "setting": "[4]; Panc-1, 30 µM (data not shown)", "result": "vacuoles were formed"}, {"measurement": "effect on cell viability", "setting": "[4]; Panc-1, 3D culture, 30 µM, 24h", "result": "did not affect cells"}, {"measurement": "decrease in cell viability", "setting": "[4]; Panc-1, 3D culture, 30 µM, 48h", "result": 55, "unit": "%"}, {"measurement": "decrease in cell viability", "setting": "[4]; Panc-1, 3D culture, 30 µM, 72h", "result": 64, "unit": "%"}]}]}
